From patent US20250332167A1, “PHARMACEUTICAL USE OF CDK 4/6 INHIBITOR” (priority 2021, published 2025)

System: NCI-H1975
Experiment: Proliferation inhibition, non-small cell lung cancer cell line NCI-H1975
Format: cell-based
Settings: Homo sapiens, NCI-H1975, 72 h
Method: Sixteen non-small cell lung cancer cell lines, including NCI-H1792, NCI-H1703, NCI-H441, SNU-761, NCI-H1975, NCI-H358, NCI-H1838, NCI-H1915, A549, SK-MES-1, NCI-H292, PC-9, NCI-H460, NCI-H23, NCI-H1581, and HLF, were used for the proliferation inhibition assay of the present invention compound. […] The cell detection equipment used was In Cell Analyzer 2200 (GE Healthcare).
With 60 μM as the initial concentration, ten points were obtained by serial five-fold dilution.
Each kind of cell in logarithmic growth phase was inoculated with 4000 cells/100 μl/well into a black transparent bottom 96-well plate and cultured overnight at 37° C. The next day, the plate was taken out, and 20 μL of the prepared sample dilutions was added to each well. The plate was then subjected to treatment at 37° C. for 72 hours. After the treatment period of 72 hours, the plate was taken out and 50 μL of neutral formaldehyde fixative (formaldehyde: PBS=1:9, 50 μl/well) was added to each well. The plate was then fixed at room temperature for 10-30 minutes. Subsequently, the wells were washed twice with 1× PBS (100 μl/well) and treated with 0.2% Triton™-X100 for 5-10 minutes to permeabilize the cells. […] The inhibitory rates of each compound at different concentration points were calculated by using the following formula, and IC50 values were obtained through curve fitting using GraphPad Prism 6.0 software.

CC1=Nc2c(F)cc(-c3nc(Nc4ccc(C5CCN(C)CC5)cn4)ncc3F)cc2C12CCCC2.O=C(O)/C=C/C(=O)O [Compound A, Fumarate salt of 5-fluoro-4-(7′-fluoro-2′-methylspiro[cyclopentane-1,3′-indol]-5′-yl)-N-(5-(1-methylpiperidin-4-yl)pyridin-2-yl)pyrimidine-2-amine]
IC50: 10 nM
